Reference: patent US9404115B2, “Coryneform bacterium transformant and process for producing phenol using the same” (priority 2010, dated 2016)
Read-outs that look alike come from different tables or passages of the source.

How the values were obtained:
[1] = system: Escherichia coli JM109; settings: aerobic, LB, 37° C., OD610
Method: (§1) A growth inhibition test in aerobic culture was performed to examine the influence of phenol on Corynebacterium glutamicum, Escherichia coli, and Pseudomonas putida. Pseudomonas putida S12, which was used for the test, is reported to be a solvent-resistant strain. In the report, disclosed is an unparalleled technology using the strain as a host in phenol production.
Escherichia coli JM109 was applied to LB agar medium (1% polypeptone, 0.5% yeast extract, 0.5% NaCl and 1.5% agar) and was left stand in the dark at 37° C. for 15 hours.
An inoculation loop of the Escherichia coli JM109 grown on a plate as above was inoculated into a test tube containing 10 mL of LB liquid medium (1% polypeptone, 0.5% yeast extract, and 0.5% NaCl), and aerobic culture was performed with shaking at 37° C. for 13 hours.
(§2) The Escherichia coli JM109 grown in the above conditions was inoculated into 100 mL of LB liquid medium in such a way that the initial bacterial cell concentration would be OD610=0.05, phenol was added at the same time in such a way that the final concentration would be 0, 0.16, or 0.20 mM, and aerobic culture was performed with shaking at 37° C. The growth of bacterial cells was determined by absorbance measurement at OD610.

[2] = system: Pseudomonas putida F1; settings: aerobic, LB (+glucose), 30° C., OD610
Method: as §1
(§3) Pseudomonas putida F1 and S12 were applied to LB agar medium (1% polypeptone, 0.5% yeast extract, 0.5% NaCl and 1.5% agar) and were left stand in the dark at 30° C. for 15 hours.
(§4) An inoculation loop of each of the Pseudomonas putida F1 and S12 grown on a plate as above was inoculated into a test tube containing 10 mL of LB (+glucose) liquid medium (1% polypeptone, 0.5% yeast extract, 0.5% NaCl and 0.4% glucose), and aerobic culture was performed with shaking at 30° C. for 13 hours.
as §2, with “The Pseudomonas putida F1 and S12” for “The Escherichia coli JM109”, “conditions were each” for “conditions was”, “LB (+glucose)” for “LB”, “0, 0.10,” for “0, 0.16,”, “at 30°” for “at 37°”

[3] = system: Pseudomonas putida S12; settings: aerobic, LB (+glucose), 30° C., OD610
Method: as §1, §3, §4
as §2, with “The Pseudomonas putida F1 and S12” for “The Escherichia coli JM109”, “conditions were each” for “conditions was”, “LB (+glucose)” for “LB”, “0, 0.10,” for “0, 0.16,”, “at 30°” for “at 37°”

[4] = system: Corynebacterium glutamicum R; settings: aerobic, A liquid medium, 33° C., OD610
Method: as §1
Corynebacterium glutamicum R was applied to A agar medium (2 g of […], 7 g of (NH4)2SO4, 0.5 g of KH2PO4, 0.5 g of K2HPO4, 0.5 g of MgSO4.7H2O, 1 mL of 0.06% (w/v) Fe2SO4.7H2O+0.042% (w/v) MnSO4.2H2O, 1 mL of 0.02% (w/v) biotin solution, 2 mL of 0.01% (w/v) thiamin solution, 2 g of yeast extract, 7 g of vitamin assay casamino acid, 40 g of glucose, and 15 g of agar were suspended in 1 L of distilled water) and was left stand in the dark at 33° C. for 15 hours.
An inoculation loop of the Corynebacterium glutamicum R grown on a plate as above was inoculated into a test tube containing 10 mL of A liquid medium (2 g of (NH2)2CO, 7 g of (NH4)2SO4, 0.5 g of KH2PO4, 0.5 g of K2HPO4, 0.5 g of MgSO4.7H2O, 1 mL of 0.06% (w/v) Fe2SO4.7H2O+0.042% (w/v) MnSO4.2H2O, 1 mL of 0.02% (w/v) biotin solution, 2 mL of 0.01% (w/v) thiamin solution, 2 g of yeast extract, 7 g of vitamin assay casamino acid, and 40 g of glucose were suspended in 1 L of distilled water) and was aerobically cultured with shaking at 33° C. for 13 hours.
as §2, with “Corynebacterium glutamicum R” for “Escherichia coli JM109”, “A” for “LB”, “0.16, 0.2, 0.24,” for “0.16,”, “0.32” for “0.20”, “33°” for “37°”

[5] = system: Corynebacterium glutamicum R; settings: reducing conditions (ORP −450 mV), 8% glucose, 33° C.
Method: Corynebacterium glutamicum R was applied to A agar medium and was left stand in the dark at 33° C. for 20 hours.
An inoculation loop of the Corynebacterium glutamicum R grown on a plate as above was inoculated into a test tube containing 10 mL of A liquid medium and was aerobically cultured with shaking at 33° C. for 15 hours.
The Corynebacterium glutamicum R grown in the above conditions was inoculated into a 2 L-conical flask containing 500 mL of A liquid medium and was aerobically cultured with shaking at 33° C. for 15 hours.
The bacterial cells cultured and proliferated as above were collected by centrifugation (5,000×g at 4° C. for 15 minutes). The obtained bacterial cells were suspended in BT (−urea) liquid medium (0.7% ammonium sulfate, 0.05% potassium dihydrogen phosphate, 0.05% dipotassium hydrogen phosphate, 0.05% magnesium sulfate heptahydrate, 0.0006% iron sulfate heptahydrate, 0.00042% manganese sulfate hydrate, 0.00002% biotin and 0.00002% thiamine hydrochloride) so that the concentration of the bacterial cell was 10% (w/v). […] During the reaction, the pH of the reaction mixture was kept at or above 7.0 through addition of 2.5N aqueous ammonia controlled by a pH controller (Type: DT-1023 made by Able).

Oc1ccccc1 [phenol]
proliferation of Escherichia coli ([1]; 0.16% phenol): significantly affected | proliferation of Escherichia coli ([1]; 0.20% phenol): completely inhibited | proliferation of Pseudomonas putida F1 ([2]; 0.10% phenol): significantly affected | proliferation of Pseudomonas putida F1 ([2]; 0.20% phenol): completely inhibited | proliferation of Pseudomonas putida S12 ([3]; 0.10% phenol): significantly affected | proliferation of Pseudomonas putida S12 ([3]; 0.20% phenol): completely inhibited | proliferation of Corynebacterium glutamicum ([4]; 0.16% phenol): hardly affected | proliferation of Corynebacterium glutamicum ([4]; 0.20% phenol): favorable growth | proliferation of Corynebacterium glutamicum ([4]; 0.24% phenol): able to proliferate | saccharide consumption by Corynebacterium glutamicum R ([5]; 0.24% phenol): no influence of phenol was observed | saccharide consumption by Corynebacterium glutamicum R ([5]; 0.38% phenol): saccharide consumption was observed | saccharide consumption by Corynebacterium glutamicum R ([5]; 0.46% phenol): slightly observed
